In article PMC10021052, “Novel multivalent S100A8 inhibitory peptides attenuate tumor progression and metastasis by inhibiting the TLR4-dependent pathway” (Cancer Gene Therapy, 2023):
Positions of bridges follow the written chain, without caps; N, C: chain ends. Non-standard residues stand in square brackets, D forms with d. Residues, ends and D or L forms follow the SMILES beside them. Chains are numbered I, II in the order given. ξ: configuration not given here. ξK = NCCCCC(N)C(=O)O; Ahx = NCCCCCC(=O)O

What was measured:
[1] = test system: S100A8-mediated cell migration; conditions: ref [8]; cited from earlier work
Source text: VEGF is another NFκB-mediated re ...

[2] = test system: CD8+ cells; conditions: LLC-tumor-bearing mice; ref [8]; cited from earlier work
[3] = test system: TLR4; conditions: ref [33], [34]; cited from earlier work
Source text: The difference between TAK-242 and our inhibitory peptides is the target molecules. […] Qin et al. previously generated two peptibodies, peptide-Fc fusion proteins, targeting mouse MDSCs using a competitive peptide phage display platform. Peptibodies recognize the cell surface of mouse MDSCs. Although peptibodies also recognize S100A9, mouse MDSCs ar ...

[4] = test system: SW480-transplanted xenograft; test: Tumor growth in SW480-transplanted xenograft model; format: in vivo, Balb nu/nu mice; conditions: SW480 xenograft, various concentrations every 3 days, *P < 0.05 vs control
[5] = molecular target: T1, TLR4/MD-2 complex (Homo sapiens, UniProt O00206+Q9Y6Y9); test: TLR4/MD-2 binding to immobilized tetravalent ILVIK (ELISA); conditions: various TLR4/MD-2 concentrations, one representative of three experiments (Fig. 7F)
T1 construct: TLR4/MD-2 recombinant protein (2 µg/ml) was added to each well
Protocol: S100A8 recombinant protein was purified as previously described. These proteins were immobilized on Maxisorp plates (Thermo Fisher Scientific, Waltham, MA, USA), followed by blocking with protein-free blocking buffer (Thermo Fisher Scientific). TLR4/MD-2 recombinant proteins with various concentrations of candidate peptides were then added to the indicated S100A8-immobilized ELISA plates for 2 h. The plates were washed, incubated with anti-TLR4 antibody, and HRP-conjugated secondary antibody, followed by the addition of substrate. The reaction was stopped by addition a 2N H2SO4 solution. Absorbance OD450/OD650 was measured using a microplate reader (Thermo Fisher Scientific). Maxisorp plates were also used for peptide coating. After blocking with protein-free blocking buffer, the coated plates were washed, and TLR4/MD-2 recombinant protein (2 µg/ml) was added to each well. The plates were incubated with a TLR4 antibody followed by horseradish peroxidase (HRP)-labeled anti-rabbit IgG. […] The amount of interleukin-8 (IL-8) or VEGF in the supernatants were analyzed by ELISA kits (R&D Systems, Mineapolis, MN) according to the manufacturer’s instructions.
Fig. 7 Isolation of multivalent S100A8 inhibitory peptides using divalent peptide libraries based on the sequences of peptide3A5. […] The binding affinities to TLR4/MD-2 complex were determined using an ELISA-based assay. […]

[6] = test system: tumor cells and macrophages; test: Cytokine/chemokine induction in tumor cells and macrophages; format: cell-based; conditions: possible mechanism scheme, Fig. 7I
[7] = test system: human TLR4/MD-2 complex; test: ELISA, TLR4/MD-2 binding to immobilized S100A8-derived peptides (overlapping peptides, alanine scan); conditions: ELISA, peptide immobilized, TLR4/MD-2 2 µg/ml
Protocol: (§1) S100A8 recombinant protein was purified as previously described. These proteins were immobilized on Maxisorp plates (Thermo Fisher Scientific, Waltham, MA, USA), followed by blocking with protein-free blocking buffer (Thermo Fisher Scientific). TLR4/MD-2 recombinant proteins with various concentrations of candidate peptides were then added to the indicated S100A8-immobilized ELISA plates for 2 h. The plates were washed, incubated with anti-TLR4 antibody, and HRP-conjugated secondary antibody, followed by the addition of substrate. The reaction was stopped by addition a 2N H2SO4 solution. Absorbance OD450/OD650 was measured using a microplate reader (Thermo Fisher Scientific). Maxisorp plates were also used for peptide coating. After blocking with protein-free blocking buffer, the coated plates were washed, and TLR4/MD-2 recombinant protein (2 µg/ml) was added to each well. The plates were incubated with a TLR4 antibody followed by horseradish peroxidase (HRP)-labeled anti-rabbit IgG. For detection of IL8 and VEGF in culture supernatants, SW480 cells were pretreated with the indicated peptides, and followed by stimulation with S100A8 for 24 h. The amount of interleukin-8 (IL-8) or VEGF in the supernatants were analyzed by ELISA kits (R&D Systems, Mineapolis, MN) according to the manufacturer’s instructions.
(§2) Fig. 2 Identification of S100A8 binding sites to human TLR4/MD-2. […] TLR4/MD-2 recombinant proteins were immobilized to the ELISA plate. After blocking, a full length or deletion mutant of S100A8 was added to the plate. The more detailed methods are described in Materials and Methods. […] B A series of overlapping S100A8 synthetic peptides. The TLR4/MD-2 recombinant proteins were added to each well of peptide immobilized plates. The affinity to TLR4/MD-2 was determined. Data are shown as mean ± SD. C The competitive activity was determined using ELISA. Data are shown as mean ± SD. D The TLR4/MD-2 was mixed with S100A8 with/without the indicated peptides, and immunoprecipitated using an anti-TLR4 antibody. TLR4 or S100A8 was visualized. Similar results were obtained in three independent experiments. […] Total RNAs from SW480 cells with/without treatment of the peptide candidates were extracted and qPCR analysis was performed using relevant primer sets and SYBR green. Relative expression levels were compared. […] TEXT PRINTED IN THE PICTURE: (A) Full length: TLR4/MD-2 binding: + | (A) S100A8-ΔC: TLR4/MD-2 binding: − | (A) S100A8-N: TLR4/MD-2 binding: −
Fig. 3 Identification of high affinity peptides to TLR4/MD-2 using alanine scanning based on the peptide #3 amino acid sequences. A Lists of peptides used for alanine scanning. […] Similar results were obtained in three independent experiments.

[8] = test system: S100A8-TLR4/MD-2 complex; test: Competitive inhibition of S100A8-TLR4/MD-2 binding (ELISA, S100A8 immobilized; also immunoprecipitation); parameters: species or system human; conditions: ELISA (Fig. 2C), immunoprecipitation with anti-TLR4 antibody (Fig. 2D)
Protocol: as §1, §2
(§3) Fig. 4 Improvement of competitive inhibition activity by divalent peptide3A5. A The binding capacity was measured at the indicated concentration using an ELISA-based assay. Similar results were obtained in three independent experiments. B SW480 cells were pretreated with 2.5 µM of divalent peptide3A5, and then stimulated with human S100A8 recombinant protein. After 30 min, cell lysates were subjected to western blotting using the indicated antibody. The divalent peptide#3 or peptide3A5 reduced the expression of S100A8-mediated IL-8 (C) and VEGF (D) induction. Total RNAs from SW480 cells with/without treatment of the peptide candidates were extracted and qPCR analysis was performed using relevant primer sets and SYBR green. Relative expression levels were compared. Peptide #3 suppresses S100A8-mediated IL-8(E) and VEGF (F) secretion in SW480 cells.

[9] = test system: SW480 cells; test: qPCR, S100A8-mediated IL-8 and VEGF mRNA induction in SW480 cells; format: cell-based, human
Protocol: SW480 cells were treated with S100A8 in Dulbecco’s Modified Eagle Medium/HamF12 supplemented with 0.1% bovine serum albumin for cytokine induction. Total RNA was extracted using the RNeasy Mini Plus (Qiagen, Hilden, Germany). Complementary DNA was synthesized using the PrimeScript 1st Strand Synthesis kit (Takara Bio, Japan). Quantitative PCR (qPCR) analysis was performed using the PowerUp^TM SYBR^TM Green mixture (Thermo Fisher Scientific) and the StepOnePlus Real Time PCR System (Thermo Fisher Scientific). Gene expression levels were calculated from Ct values, and the relationship between the Ct value and the logarithm of the copy number of a target gene was confirmed to be on a linear line using the corresponding isolated DNA and its serial dilutions as a standard. Thus, the gene expression levels of IL-8 and VEGF were normalized against that of β-actin in each sample. The following primers were used; β-actin, 5′-[…]-3′ and 5′-[…]-3′; IL-8, 5′-[…]-3′ and 5′-[…]-3′; VEGF, 5′-[…]-3′ and 5′-[…]-3′.
as §2, §3

[10] = test system: SW480 cells; test: ELISA, IL-8 and VEGF secretion of SW480 cells; format: cell-based, human; conditions: peptide pretreatment, S100A8 24 h, supernatant ELISA, *P < 0.05 vs S100A8
Protocol: as §1

[11] = test system: SW480 cells; test: S100A8-mediated cell migration of SW480 cells; format: cell-based, human; conditions: Supplementary Fig. 1B

T1 sequence (O00206 24-631 limits assumed): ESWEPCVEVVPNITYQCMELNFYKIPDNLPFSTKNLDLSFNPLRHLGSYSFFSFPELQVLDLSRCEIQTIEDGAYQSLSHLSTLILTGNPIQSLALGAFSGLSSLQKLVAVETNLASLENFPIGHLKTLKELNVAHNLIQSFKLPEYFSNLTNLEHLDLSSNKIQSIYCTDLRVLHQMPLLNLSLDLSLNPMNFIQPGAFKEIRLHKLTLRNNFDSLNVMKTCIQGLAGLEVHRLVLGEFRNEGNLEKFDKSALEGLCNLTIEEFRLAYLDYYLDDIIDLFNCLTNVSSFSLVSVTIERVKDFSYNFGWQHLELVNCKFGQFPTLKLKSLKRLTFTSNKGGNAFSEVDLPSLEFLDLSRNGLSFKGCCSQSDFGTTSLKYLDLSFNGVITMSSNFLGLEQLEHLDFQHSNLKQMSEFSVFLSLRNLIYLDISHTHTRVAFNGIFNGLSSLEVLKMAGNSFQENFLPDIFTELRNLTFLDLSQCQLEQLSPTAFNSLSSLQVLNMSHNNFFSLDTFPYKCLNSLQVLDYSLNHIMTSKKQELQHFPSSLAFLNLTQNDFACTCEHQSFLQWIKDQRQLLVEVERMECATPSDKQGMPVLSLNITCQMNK
T1 sequence (Q9Y6Y9 17-160 partner limits assumed): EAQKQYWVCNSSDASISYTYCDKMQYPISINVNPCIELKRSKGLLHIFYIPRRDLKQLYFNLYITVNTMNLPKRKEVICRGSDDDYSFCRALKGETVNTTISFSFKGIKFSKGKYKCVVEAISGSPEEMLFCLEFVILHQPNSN

For `CCCCCC/C=C\CCCCCCCCCC(=O)N[C@H]1[C@H](OC[C@H]2O[C@H](OP(=O)(O)O)[C@H](NC(=O)CC(=O)CCCCCCCCCCC)[C@@H](OCCCCCCCCCC)[C@@H]2O)O[C@H](COC)[C@@H](OP(=O)(O)O)[C@@H]1OCC[C@@H](CCCCCCC)OC` [Eritoran, reference compound], the “S100A8-mediated cell migration, Eritoran” value [1] is listed as “inhibited S100A8-mediated cell migration” and the “intratumoral infiltration of CD8+ cells, Eritoran” value [2] is listed as “increased intratumoral infiltration of CD8^+ cells”.
For `CCOC(=O)C1=CCCC[C@H]1S(=O)(=O)Nc1ccc(F)cc1Cl` [TAK-242, ethyl (6R)-6-[N-(2-Chloro-4-fluorophenyl)sulfamoyl]cyclohex-1-ene-1-carboxylate], the “TLR4 inhibition, site” value [3] is listed as “inhibits TLR4 at intracellular domains”.
In the case of `CC[C@H](C)[C@H](NC(C)=O)C(=O)N[C@@H](CC(C)C)C(=O)N[C@H](C(=O)N[C@H](C(=O)N[C@@H](CCCCN)C(=O)NCCCCCC(=O)NCCCCC(NC(=O)CCCCCNC(=O)[C@H](CCCCN)NC(=O)[C@@H](NC(=O)[C@@H](NC(=O)[C@H](CC(C)C)NC(=O)[C@@H](NC(C)=O)[C@@H](C)CC)C(C)C)[C@@H](C)CC)C(=O)NCCCCC(NC(=O)C(CCCCNC(=O)CCCCCNC(=O)[C@H](CCCCN)NC(=O)[C@@H](NC(=O)[C@@H](NC(=O)[C@H](CC(C)C)NC(=O)[C@@H](NC(C)=O)[C@@H](C)CC)C(C)C)[C@@H](C)CC)NC(=O)CCCCCNC(=O)[C@H](CCCCN)NC(=O)[C@@H](NC(=O)[C@@H](NC(=O)[C@H](CC(C)C)NC(=O)[C@@H](NC(C)=O)[C@@H](C)CC)C(C)C)[C@@H](C)CC)C(N)=O)[C@@H](C)CC)C(C)C` (some centres unmarked) [Tetravalent ILVIK] (I: Ac-ILVIK[Ahx][ξK][ξK]-NH2 / II: Ac-ILVIK[Ahx][ξK] / III: Ac-ILVIK[Ahx] / IV: Ac-ILVIK[Ahx]; amide I:7-IV:C, I:8-II:C, II:7-III:C), the “tumor growth, multivalent ILVIK” value [4] is reported as “inhibits tumor growth”, the “tumor growth, multivalent ILVIK” value ([4]; listed as tetravalent ILVIK) is reported as “more effectively inhibited tumor progression” and the Kd [5] is reported as 4.58 to 8.78 nM. For the same compound, the induction of cytokines/chemokines [6] was “suppress the induction of cytokines/chemokines in both tumor cells and macrophages”.
In the case of “FQEFLILVIK [Peptide #3, S100A8-derived peptide […] from the carboxyl terminal region]”, the “TLR4/MD-2 binding of peptide” value [7] is reported as “most strongly bound to the TLR4/MD-2 complex among a series of S100A8-derived peptides”, the “TLR4/MD-2 binding of peptide” value ([7]; listed as peptide #3) is reported as “could bind to TLR4/MD-2” and the “competition for S100A8-TLR4/MD-2 binding” value [8] is reported as “competed for binding between S100A8 and the TLR4/MD-2 complex”. For the same compound, the “IL-8 induction by peptide alone (agonism)” value ([9]; no S100A8) was “failed to induce IL-8 production”, the “S100A8-mediated VEGF induction (mRNA)” value ([9]; qPCR, normalized to β-actin) was “suppressed S100A8-induced VEGF induction” and the “S100A8-mediated IL-8 induction (mRNA)” value ([9]; qPCR, normalized to β-actin, *P < 0.05 vs S100A8) was “reduces the expression of S100A8-mediated IL-8 induction”. For the same compound, the “S100A8-mediated IL-8 secretion” value [10] was “suppresses S100A8-mediated IL-8 secretion”, the “S100A8-mediated VEGF secretion” value [10] was “suppresses” and the “S100A8-mediated IL-8 secretion” value ([10]; listed as peptide#3) was “suppressed”. The S100A8-mediated cell migration [11] was “significantly inhibited”.
